From US9884839B2, “Inhibitors of 17Beta-hydroxysteroid dehydrogenases type 1 and type 2” (ElexoPharm GmbH, priority 2014, dated 2018) come the findings set out here.

Where two headings read alike, the source gives them in different places.

The target of one series is T1, rat 17β-HSD2 (Rattus norvegicus, UniProt Q62730).
T1 construct: The pellet fractions containing the microsomal 17β-HSD2 were used for the determination of E1 formation; from tissue; host or cells: rat liver, microsomal fraction
T1 sequence (Q62730 1-381): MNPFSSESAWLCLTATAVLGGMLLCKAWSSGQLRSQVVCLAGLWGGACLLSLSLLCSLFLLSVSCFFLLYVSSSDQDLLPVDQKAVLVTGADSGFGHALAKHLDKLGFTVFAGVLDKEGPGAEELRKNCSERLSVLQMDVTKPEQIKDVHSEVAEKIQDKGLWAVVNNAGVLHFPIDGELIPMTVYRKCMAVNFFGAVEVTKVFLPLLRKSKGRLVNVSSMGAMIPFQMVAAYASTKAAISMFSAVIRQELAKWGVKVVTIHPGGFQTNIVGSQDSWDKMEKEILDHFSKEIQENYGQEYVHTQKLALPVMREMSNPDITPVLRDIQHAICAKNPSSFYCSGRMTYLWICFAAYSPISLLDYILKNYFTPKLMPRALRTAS
The series can be described thus: Inhibition of rat 17β-HSD2 (liver microsomal fraction). Format: biochemical. The conditions noted are these: read-out: % Inhibition r17β-HSD2. For orientation: Liver microsomes are a subcellular fraction often used to study metabolism.

The nature of another series: in vitro. The settings on record: human, pooled human liver S9 fraction.
For series [1] the following is noted: human liver S9, 1 mg/mL; unit not given.
The next series has as its target T2, human 17β-HSD2 (Homo sapiens, UniProt P37059).
T2 construct: 17β-HSD2 was obtained from the microsomal fraction; from tissue; host or cells: human placenta, microsomal fraction
T2 sequence (P37059 1-387): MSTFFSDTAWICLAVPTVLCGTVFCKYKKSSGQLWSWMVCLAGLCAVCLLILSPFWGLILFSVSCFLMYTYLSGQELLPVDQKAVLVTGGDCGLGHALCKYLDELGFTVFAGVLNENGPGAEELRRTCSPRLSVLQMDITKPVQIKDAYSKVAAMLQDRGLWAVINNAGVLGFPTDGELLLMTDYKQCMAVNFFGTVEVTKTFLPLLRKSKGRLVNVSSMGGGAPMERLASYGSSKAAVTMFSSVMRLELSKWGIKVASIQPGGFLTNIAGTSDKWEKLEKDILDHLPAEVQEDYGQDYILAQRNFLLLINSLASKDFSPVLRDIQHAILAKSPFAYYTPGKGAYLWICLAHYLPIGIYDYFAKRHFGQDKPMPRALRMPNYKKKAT
In words: Inhibition of human 17β-HSD2 (conversion of [3H]-E2 to E1). Format: biochemical. The settings on record: read-out: IC50 [nM] h17β-HSD2.

Another series has as its target T3, mouse 17β-HSD2 (Mus musculus, UniProt P51658).
T3 construct: The pellet fractions containing the microsomal 17β-HSD2 were used for the determination of E1 formation; from tissue; host or cells: mouse liver, microsomal fraction
T3 sequence (P51658 1-381): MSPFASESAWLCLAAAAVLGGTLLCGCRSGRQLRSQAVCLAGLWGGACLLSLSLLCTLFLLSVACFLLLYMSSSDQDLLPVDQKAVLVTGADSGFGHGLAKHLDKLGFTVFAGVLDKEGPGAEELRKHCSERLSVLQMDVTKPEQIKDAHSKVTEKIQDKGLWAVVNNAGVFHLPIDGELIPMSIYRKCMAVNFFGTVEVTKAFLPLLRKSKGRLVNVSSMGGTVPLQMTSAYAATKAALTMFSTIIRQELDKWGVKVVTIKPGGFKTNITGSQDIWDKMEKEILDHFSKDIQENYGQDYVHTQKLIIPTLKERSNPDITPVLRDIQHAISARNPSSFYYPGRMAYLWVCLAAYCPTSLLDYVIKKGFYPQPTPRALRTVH
In words: Inhibition of mouse 17β-HSD2 (liver microsomal fraction). Format: biochemical. The conditions noted are these: read-out: Inhibition @ 1 μM m17β-HSD2.

The target in another series is T4, mouse 17β-HSD1 (Mus musculus, UniProt P51656).
T4 construct: made in house; host or cells: HEK293 cells, transient transfection; 1,000 g supernatant of the cell lysate
T4 sequence (P51656 1-344): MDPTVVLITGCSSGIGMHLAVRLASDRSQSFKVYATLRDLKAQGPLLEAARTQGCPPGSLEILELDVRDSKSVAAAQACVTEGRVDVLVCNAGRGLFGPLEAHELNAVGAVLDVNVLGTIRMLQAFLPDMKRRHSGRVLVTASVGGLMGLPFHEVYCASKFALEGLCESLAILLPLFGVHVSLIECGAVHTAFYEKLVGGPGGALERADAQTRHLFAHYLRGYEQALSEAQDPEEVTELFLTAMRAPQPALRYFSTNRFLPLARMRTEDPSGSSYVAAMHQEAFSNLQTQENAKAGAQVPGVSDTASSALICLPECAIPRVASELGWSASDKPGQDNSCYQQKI
The series can be described thus: Inhibition of mouse 17β-HSD1 (recombinant, HEK293 lysate). The settings on record: for inhibition at 1 µM: read-out: Inhibition @ 1 μM m17β-HSD1. Format: biochemical.

A further series concerns the target T5, human 17β-HSD1 (Homo sapiens, UniProt P14061).
T5 construct: For the partial purification of 17β-HSD1, the cytosolic fraction was precipitated with ammonium sulfate; from tissue; host or cells: human placenta, cytosolic fraction, ammonium sulfate precipitate
T5 sequence (P14061 1-328): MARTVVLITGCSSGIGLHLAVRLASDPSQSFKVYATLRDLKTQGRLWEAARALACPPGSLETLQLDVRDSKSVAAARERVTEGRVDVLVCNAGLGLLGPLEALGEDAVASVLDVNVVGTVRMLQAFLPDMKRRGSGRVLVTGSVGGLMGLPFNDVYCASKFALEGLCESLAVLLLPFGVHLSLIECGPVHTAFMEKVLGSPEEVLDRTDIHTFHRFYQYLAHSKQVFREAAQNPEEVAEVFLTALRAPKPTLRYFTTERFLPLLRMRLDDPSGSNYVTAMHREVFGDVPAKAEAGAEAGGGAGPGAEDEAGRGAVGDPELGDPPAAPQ
The series can be described thus: Inhibition of human 17β-HSD1 (conversion of [3H]-E1 to E2, HPLC radioflow detection). The settings on record: read-out: IC50 [nM] h17β-HSD1. Type of series: biochemical.

The next series addresses T6, rat 17β-HSD1 (Rattus norvegicus, UniProt P51657).
T6 construct: made in house; host or cells: HEK293 cells, transient transfection; 1,000 g supernatant of the cell lysate
T6 sequence (P51657 1-344): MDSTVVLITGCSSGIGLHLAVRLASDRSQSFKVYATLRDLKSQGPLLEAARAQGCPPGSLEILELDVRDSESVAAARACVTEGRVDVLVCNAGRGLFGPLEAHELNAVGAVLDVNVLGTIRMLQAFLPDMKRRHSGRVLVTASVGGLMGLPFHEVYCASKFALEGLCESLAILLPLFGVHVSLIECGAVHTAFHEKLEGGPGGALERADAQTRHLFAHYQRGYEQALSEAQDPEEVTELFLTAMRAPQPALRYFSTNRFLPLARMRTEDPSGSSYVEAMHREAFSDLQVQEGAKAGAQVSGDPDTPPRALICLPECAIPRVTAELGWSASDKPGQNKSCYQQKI
In words: Inhibition of rat 17β-HSD1 (recombinant, HEK293 lysate). Type of series: biochemical. The conditions noted are these: read-out: % Inhibition r17β-HSD1; for inhibition at […]: Cmpd conc. 250 nM.

Where [2] appears, read: human placental cytosolic enzyme, E1 500 nM, NADH, Tables 1, 4-11.

For the compound `COc1c(C)cc(-c2ccc(C(=O)c3c(F)ccc(O)c3F)s2)cc1C` [Compound 16, (2,6-Difluoro-3-hydroxy-phenyl)-[5-(4-methoxy-3,5-dimethyl-phenyl)-thiophen-2-yl]-methanone], the inhibition at […] on rat 17β-HSD2 was determined as 27%; at rat 17β-HSD1 it was 39%. In addition, the half-life at 1 µM in the series “in vitro” was 8.5 min. In addition, the CLint in series [1] was determined as 81.3. The half-inhibitory concentration (IC50) at human 17β-HSD2 came to 18 nM; on human 17β-HSD1 (setting [2]), 0.9 nM. Also, the values for the inhibition at 1 µM at mouse 17β-HSD2 and on mouse 17β-HSD1 were 55% and 59%, respectively.
Take `Cc1cc(-c2ccc(C(=O)c3c(F)ccc(O)c3F)s2)cc(C)c1O` [Compound 24, (2,6-Difluoro-3-hydroxy-phenyl)-[5-(4-hydroxy-3,5-dimethyl-phenyl)-thiophen-2-yl]-methanone]: the values for the inhibition at […] at rat 17β-HSD2 and on rat 17β-HSD1 were 35% and 63%, respectively. This compound had a half-life at 1 µM in the series “in vitro” of 2.6 min. Also, in series [1], the CLint was 272.7. The IC50 on human 17β-HSD2 turned out to be 7 nM; on mouse 17β-HSD1 (recombinant mouse enzyme, E1 10 nM, NADPH, read-out: IC50 m17β-HSD1), 397 nM; on human 17β-HSD1, 0.4 nM. On mouse 17β-HSD2, the inhibition at 1 µM was determined as 76%.
For the compound `COc1c(Cl)cc(-c2ccc(C(=O)c3c(F)ccc(O)c3F)s2)cc1CN1CCNCC1` [Compound 30, [5-(3-Chloro-4-methoxy-5-piperazin-1-ylmethyl-phenyl)-thiophen-2-yl]-(2,6-difluoro-3-hydroxy-phenyl)-methanone], the inhibition at 0.5 µM on rat 17β-HSD2 is 55%; on rat 17β-HSD1 (Cmpd conc. 500 nM), 51%. The half-life at 1 µM in the series “in vitro” was 6.5 min. Further, the CLint in series [1] is 106.8. The IC50 at human 17β-HSD2 is 26 nM; on human 17β-HSD1 (setting [2]), 4.7 nM. Also, the inhibition at 1 µM was 41% on mouse 17β-HSD2 and 25% at mouse 17β-HSD1.

As usually defined, the inhibition is the relative decrease from the control value, in per cent. As usually defined, the half-life is the time in which the quantity being followed falls by half. Read a low half-life as fast loss. What is called IC50 is the concentration that inhibits the measured activity by half.
